This test deals with T1, human GnRH receptor (Homo sapiens, UniProt P30968).
T1 construct: line established by Prof; Thomas Gudermann; host or cells: CHO cells
T1 sequence (P30968 1-328): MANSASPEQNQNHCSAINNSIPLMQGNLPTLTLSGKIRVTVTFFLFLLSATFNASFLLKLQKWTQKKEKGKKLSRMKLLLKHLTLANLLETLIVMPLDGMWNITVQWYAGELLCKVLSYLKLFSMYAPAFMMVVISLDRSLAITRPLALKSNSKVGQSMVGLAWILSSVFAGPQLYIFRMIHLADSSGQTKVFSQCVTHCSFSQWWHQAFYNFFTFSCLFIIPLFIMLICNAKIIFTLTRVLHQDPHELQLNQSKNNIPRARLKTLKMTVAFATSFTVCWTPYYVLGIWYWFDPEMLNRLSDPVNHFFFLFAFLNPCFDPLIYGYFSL
The test can be described thus: IP-One HTRF assay (inhibition of GnRH-R activation by buserelin). Particulars: IP-One HTRF assay with buserelin (at EC80) stimulation; CHO cells stably expressing human GnRH receptor; tested 20 µM to 1 nM; read-out: Potency IC50. Type of test: cell-based. The text has this:
By using homogenous time-resolved fluorescence resonance energy transfer (HTRF), the generation of one component of the GnRH-R signalling cascade can be measured. After stimulation of CHO cells stably expressing human GnRH receptor (established by Prof. Thomas Gudermann, currently University of Marburg, Germany; supplied as frozen cell aliquots by Cell Culture Services, Hamburg, Germany) with the EC80 of the GnRH agonist buserelin, Gq protein-coupled receptor signalling cascade is activated resulting in PLC-dependent cleavage of PIP2 to Inositol-1,4,5-triphosphate (IP3) and Diacylglycerol. The second messenger IP3 is degraded intracellularly to myo-inositol. Inhibition of the final degradation step from Inositol-1-phosphate (IP1) to myo-inositol by addition of lithium chloride leads to accumulation of IP1 in the cells. In cell lysates, IP1 can be detected via an antibody-based HTRF detection technology, where IP1 can displace the FRET acceptor IP1-d2 from binding by Terbium-labelled anti-IP1 antibody as donor resulting in a signal decrease. Compounds were tested for their capability of inhibiting GnRH-R activation by buserelin. For all IP-One HTRF® assays reagents of Cisbio Bioassays (IP-One Tb Jumbo kit, #62IPAPEJ; Cisbio Bioassays, Bagnols sur Cèze Cedex, France) were used.
For the assay, frozen cell aliquots were thawed and a cell suspension (3.33x10^6 cells/ml) containing IP1-d2 (dilution 1:40) was prepared and incubated at 37°C. After 1 h 3 µl of the cell suspension were added to 50 nl of a 100-fold concentrated solution of the test compound in DMSO pre-dispensed in a well of a white low-volume 384-well microtiter plate (Greiner Bio-One, Frickenhausen, Germany). The mixture was incubated for 20 min at 22°C to allow for pre-binding of the test compound to the GnRH-R. The receptor signaling cascade was stimulated by addition of 2 µl buserelin or LHRH (at EC50 or EC80) in stimulation buffer (10 mM Hepes pH 7.4, 1 mM CaCl2, 0.5 mM MgCl2, 4.2 mM KCI, 146 mM NaCl, 5.5 mM α-D-Glucose, 0.05% BSA, 125 mM LiCl (final assay concentration 50 mM) in aqua dest.). Plates were incubated for 1 h at 37°C and 5% carbon dioxide before the cells were lysed by adding 3 µl Terbium-labelled anti-IP1 antibody (1:40) diluted in Conjugate & Lysis buffer as supplied with the kit. After an incubation for 1 h at 22°C to enable complete cell lysis and antibody binding to free IP1 or IP1-d2, plates were measured in an HTRF reader, e.g. a RUBYstar, PHERAstar (both BMG Labtechnologies, Offenburg, Germany) or a Viewlux (PerkinElmer LAS, Rodgau-Jügesheim, Germany). From the fluorescence emissions at 665 nm (FRET) and at 620 nm (background signal of Terbium-antibody), the ratio (emission at 665 nm divided by emission at 620 nm) was calculated and the data were normalized (reaction without test compound = 0% inhibition; all other assay components except agonist = 100% inhibition). On the same microtiter plate, compounds were tested at 10 different concentrations in the range of 20 µM to 1 nM (20 µM, 6.7 µM, 2.2 µM, 0.74 µM, 0.25 µM, 82 nM, 27 nM, 9.2 nM, 3.1 nM and 1 nM; dilution series prepared before the assay at the level of the 100-fold conc. stock solutions by serial 1:3 dilutions in 100% DMSO) in duplicate values for each concentration. By using an in-house software, the IC50 values were calculated by a 4 parameter fit. The data reveal that the compounds of the present invention have antagonist activities on the human GnRH receptor. Within the meaning of the present invention the antagonist activity is reflected by the ability of a compound of the invention to antagonize human GnRH receptor stimulation in IP-One HTRF® assay at least three times the standard deviation over the background level.
For orientation: Time-resolved FRET reads energy transfer from a long-lived donor to a nearby acceptor.
In general, IC50 refers to the concentration that inhibits the measured activity by half. Turning to `O=C(Nc1cncc(C(F)(F)F)c1)c1ccc2c(c1)C1(CCC(O)(C(F)(F)F)CC1)C(C1CC1)N2S(=O)(=O)c1ccc(F)cc1` (centres unmarked) [Example 58, 2'-cyclopropyl-1'-[(4-fluorophenyl)sulfonyl]-4-hydroxy-4-(trifluoromethyl)-N-[5-(trifluoromethyl)pyridin-3-yl]-1',2'-dihydrospiro[cyclohexane-1,3'-indole]-5'-carboxamide], the IC50 turned out to be 3120 nM.
Regarding `CC1(O)CCC2(CC1)c1cc(C(=O)NCc3ccccc3Cl)ccc1N(S(=O)(=O)c1ccc(F)cc1)C2C1CC1` (centres unmarked) [Example 4, N-(2-chlorobenzyl)-2'-cyclopropyl-1'-[(4-fluorophenyl)sulfonyl]-4-hydroxy-4-methyl-1',2'-dihydrospiro[cyclohexane-1,3'-indole]-5'-carboxamide], the half-maximal inhibitory concentration (IC50) came to 73.3 nM.
In the case of `CC(C)=CCC1N(S(=O)(=O)c2ccc(F)cc2)c2ccc(C(=O)Nc3cncc(C)c3)cc2C12CCC(O)(C(F)(F)F)CC2` (centres unmarked) [Example 18, 1'-[(4-fluorophenyl)sulfonyl]-4-hydroxy-2'-(3-methylbut-2-en-1-yl)-N-(5-methylpyridin-3-yl)-4-(trifluoromethyl)-1',2'-dihydrospiro[cyclohexane-1,3'-indole]-5'-carboxamide], the IC50 was 1840 nM.
The value for `CC(C)=CCC1N(S(=O)(=O)c2ccc(F)cc2)c2ccc(C(=O)Nc3cncc(C(F)(F)F)c3)cc2C12CCC(O)(C(F)(F)F)CC2` (centres unmarked) [Example 19, 1'-[(4-fluorophenyl)sulfonyl]-4-hydroxy-2'-(3-methylbut-2-en-1-yl)-4-(trifluoromethyl)-N-[5-(trifluoromethyl)pyridin-3-yl]-1',2'-dihydrospiro[cyclohexane-1,3'-indole]-5'-carboxamide] was 9400 nM; that for `Cc1cncc(NC(=O)c2ccc3c(c2)C2(CCC(O)(C(F)(F)F)CC2)C(C2CC2)N3S(=O)(=O)c2ccc(F)cc2)c1` (centres unmarked) [Example 25, 2'-cyclopropyl-1'-[(4-fluorophenyl)sulfonyl]-4-hydroxy-N-(5-methylpyridin-3-yl)-4-(trifluoromethyl)-1',2'-dihydrospiro[cyclohexane-1,3'-indole]-5'-carboxamide] was 559 nM; that for `COC(=O)c1cccc(NC(=O)c2ccc3c(c2)C2(CCC(O)(C(F)(F)F)CC2)C(C2CC2)N3S(=O)(=O)c2ccc(F)cc2)c1` (single isomer, unassigned) [Example 30-1] was 142 nM.
In the case of `O=C(NCc1ccccc1Cl)c1ccc2c(c1)C1(CCC(O)(C(F)(F)F)CC1)C(C1CC1)N2S(=O)(=O)c1ccc(F)cc1` (centres unmarked) [Example 62, N-(2-chlorobenzyl)-2'-cyclopropyl-1'-[(4-fluorophenyl)sulfonyl]-4-hydroxy-4-(trifluoromethyl)-1',2'-dihydrospiro[cyclohexane-1,3'-indole]-5'-carboxamide] it was 253 nM; in that of `COC(=O)c1cccc(NC(=O)c2ccc3c(c2)C2(CCC(O)(C(F)(F)F)CC2)C(C2CC2)N3S(=O)(=O)c2ccc(F)cc2)c1` (single isomer, unassigned) [Example 30-2], 1590 nM.
The value for `O=C(O)c1cccc(S(=O)(=O)N2c3ccc(C(=O)NCc4ncccc4C(F)(F)F)cc3C3(CCC(O)(C(F)(F)F)CC3)C2C2CC2)c1` (centres unmarked) [Example 50, 3-{[2'-cyclopropyl-4-hydroxy-4-(trifluoromethyl)-5'-({[3-(trifluoromethyl)pyridin-2-yl]methyl}carbamoyl)spiro[cyclohexane-1,3'-indol]-1'(2'H)-yl]sulfonyl}benzoic acid] was 3070 nM.
`O=C(NCc1ncccc1C(F)(F)F)c1ccc2c(c1)C1(CCC(O)(C(F)(F)F)CC1)C(C1CC1)N2S(=O)(=O)c1ccc(F)cc1` (centres unmarked) [Example 65, 2'-cyclopropyl-1'-[(4-fluorophenyl)sulfonyl]-4-hydroxy-4-(trifluoromethyl)-N-{[3-(trifluoromethyl)pyridin-2-yl]methyl}-1',2'-dihydrospiro[cyclohexane-1,3'-indole]-5'-carboxamide]: the concentration for half-maximal inhibition (IC50) amounted to 311 nM.
The value for `COc1cccc(S(=O)(=O)N2c3ccc(C(=O)Nc4cc[nH]n4)cc3C3(CCC(O)(C(F)(F)F)CC3)C2C2CC2)c1` (centres unmarked) [Example 33, 2'-cyclopropyl-4-hydroxy-1'-[(3-methoxyphenyl)su Ifonyl]-N-(1H-pyrazol-3-yl)-4-(trifluoromethyl)-1',2'-dihydrospiro[cyclohexane-1,3'-indole]-5'-carboxamide] was 2230 nM; that for `COC(=O)c1cccc(S(=O)(=O)N2c3ccc(C(=O)NCc4ccccc4Cl)cc3C3(CCCCC3)C2C2CC2)c1` (centres unmarked) [Example 9, methyl 3-({5'-[(2-chlorobenzyl)carbamoyl]-2'-cyclopropylspiro[cyclohexane-1,3'-indol]-1'(2'H)-yl}sulfonyl)benzoate] was 2290 nM; that for `CC(C)=CCC1N(S(=O)(=O)c2ccc(F)cc2)c2ccc(C(=O)Nc3cccc(S(C)(=O)=O)c3)cc2C12CCC(O)(C(F)(F)F)CC2` (centres unmarked) [Example 15, 1'-[(4-fluorophenyl)sulfonyl]-4-hydroxy-2'-(3-methylbut-2-en-1-yl)-N-[3-(methylsulfonyl)phenyl]-4-(trifluoromethyl)-1',2'-dihydrospiro[cyclohexane-1,3'-indole]-5'-carboxamide] was 1280 nM.
The value for `O=C(NCc1ncc(F)cc1Cl)c1ccc2c(c1)C1(CCC(O)(C(F)(F)F)CC1)C(C1CC1)N2S(=O)(=O)c1ccc(F)cc1` (centres unmarked) [Example 64, N-[(3-chloro-5-fluoropyridin-2-yl)methyl]-2'-cyclopropyl-1'-[(4-fluorophenyl)sulfonyl]-4-hydroxy-4-(trifluoromethyl)-1',2'-dihydrospiro[cyclohexane-1,3'-indole]-5'-carboxamide] was 519 nM.
The value for `COc1cccc(S(=O)(=O)N2c3ccc(C(=O)Nc4cncc(C(F)(F)F)c4)cc3C3(CCC(O)(C(F)(F)F)CC3)C2C2CC2)c1` (centres unmarked) [Example 40, 2'-cyclopropyl-4-hydroxy-1'-[(3-methoxyphenyl)su Ifonyl]-4-(trifluoromethyl)-N-[5-(trifluoromethyl)pyridin-3-yl]-1',2'-dihydrospiro[cyclohexane-1,3'-indole]-5'-carboxamide] was 5650 nM.
Regarding `O=C(Nc1ccon1)c1ccc2c(c1)C1(CCC(O)(C(F)(F)F)CC1)C(C1CC1)N2S(=O)(=O)c1cccc(C(=O)N2CCC2)c1` (centres unmarked) [Example 57, 1'-{[3-(azetidin-1-ylcarbonyl)phenyl]sulfonyl}-2'-cyclopropyl-4-hydroxy-N-(1,2-oxazol-3-yl)-4-(trifluoromethyl)-1',2'-dihydrospiro[cyclohexane-1,3'-indole]-5'-carboxamide], the IC50 worked out at 1220 nM.
The value for `NS(=O)(=O)c1cccc(NC(=O)c2ccc3c(c2)C2(CCC(O)(C(F)(F)F)CC2)C(C2CC2)N3S(=O)(=O)c2ccc(F)cc2)c1` (centres unmarked) [Example 47, 2'-cyclopropyl-1 [(4-fluorophenyl)sulfonyl]-4-hydroxy-N-(3-sulfamoylphenyl)-4-(trifluoromethyl)-1',2'-dihydrospiro[cyclohexane-1,3'-indole]-5'-carboxamide] was 618 nM.

The values above are taken from EP2881391A1, “Spiroindoline carbocycle derivatives and pharmaceutical compositions thereof” (Bayer Pharma Aktiengesellschaft, priority 2013, dated 2015).
